Source: BindingDB's records for doi:10.1016/j.bmcl.2017.02.035 (Nestl&#65533, 2017)

Target: Disintegrin and metalloproteinase domain-containing protein 17 (Homo sapiens, UniProt P78536)
Test: Inhibition of recombinant TACE catalytic domain (unknown origin) using Abz-LAQAVRSSSR-Dpa as substrate preincubated for 10 mins followed by substrate addition measured after 10 mins by FRET assay

Chain of Disintegrin and metalloproteinase domain-containing protein 17 (P78536 whole entry, the tested form may be a part): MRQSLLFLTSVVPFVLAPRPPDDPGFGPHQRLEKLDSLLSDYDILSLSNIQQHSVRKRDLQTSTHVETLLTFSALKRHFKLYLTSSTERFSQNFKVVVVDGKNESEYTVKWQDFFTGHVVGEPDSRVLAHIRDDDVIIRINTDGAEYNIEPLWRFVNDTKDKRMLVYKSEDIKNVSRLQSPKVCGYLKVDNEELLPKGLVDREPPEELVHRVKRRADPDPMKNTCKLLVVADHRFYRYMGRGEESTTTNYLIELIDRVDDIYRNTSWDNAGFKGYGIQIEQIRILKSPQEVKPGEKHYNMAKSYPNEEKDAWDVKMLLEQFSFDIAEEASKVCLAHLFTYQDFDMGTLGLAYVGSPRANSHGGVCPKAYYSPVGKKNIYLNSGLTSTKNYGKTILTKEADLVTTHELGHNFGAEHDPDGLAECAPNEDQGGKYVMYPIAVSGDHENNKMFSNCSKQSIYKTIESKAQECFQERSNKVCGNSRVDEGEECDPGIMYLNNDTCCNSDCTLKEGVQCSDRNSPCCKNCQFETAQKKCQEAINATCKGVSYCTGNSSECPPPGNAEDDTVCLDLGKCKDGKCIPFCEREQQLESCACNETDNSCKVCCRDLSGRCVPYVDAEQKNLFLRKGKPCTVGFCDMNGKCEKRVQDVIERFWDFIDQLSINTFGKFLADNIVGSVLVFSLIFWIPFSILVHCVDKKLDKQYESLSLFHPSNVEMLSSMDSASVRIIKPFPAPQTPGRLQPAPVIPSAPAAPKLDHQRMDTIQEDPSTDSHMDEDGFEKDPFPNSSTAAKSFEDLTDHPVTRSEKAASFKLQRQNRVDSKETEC

SMILES: C#CCN1C[C@H](C(=O)NO)[C@H](NS(=O)(=O)c2ccc(OCc3cc(C)nc4ccccc34)cc2)C1
- IC50: 700 pM
